Patent publication US5789434A, “Derivatives of substituted 4-biarylbutyric acid as matrix metalloprotease inhibitors” (priority 1995, dated 1998)
pIC50: −log10 of the molar value.

Tests used:
MMP-3 = biological target: T1, MMP-3 (Homo sapiens, UniProt P08254); assay: Primary Thiopeptilide MMP-3 Inhibition Assay; assay type: biochemical; settings: for inhibition at 5 µM: read-out: MMP-3 Thiopep. % inhibition; for pIC50: pH 6.5, 13 nM stromelysin, x (n) = average of n determinations, read-out: MMP-3 Thiopep. IC50
T1 construct: Truncated Prostromelysin-257 was expressed in a soluble form in E.coli; made in house; host or cells: E. coli
Description: Enzyme: recombinant stromelysin expressed in E.coli and purified as described above. […] The protocols for the assay of compounds as stromelysin inhibitors was the same as that used for MMP-9 except that the assay buffer was 50 mM MES, pH 6.5 containing 150 mM NaCl, 10 mM CaCl2, 0.005% Brij, and 1% DMSO.

MMP-9 = biological target: T2, MMP-9 (Homo sapiens, UniProt P14780); assay: Thiopeptilide MMP-9 Inhibition Assay; assay type: biochemical; settings: for inhibition at 5 µM: read-out: MMP-9: Thiopep. % inhibition; for pIC50: pH 6.5, x (n) = average of n determinations, read-out: MMP-9: Thiopep. IC50
T2 construct: from tissue; host or cells: human polymorphonuclear leukocytes (PMN) from whole blood (New York Blood Center), PMA-stimulated supernatant
T2 sequence (P14780 107-707 limits assumed): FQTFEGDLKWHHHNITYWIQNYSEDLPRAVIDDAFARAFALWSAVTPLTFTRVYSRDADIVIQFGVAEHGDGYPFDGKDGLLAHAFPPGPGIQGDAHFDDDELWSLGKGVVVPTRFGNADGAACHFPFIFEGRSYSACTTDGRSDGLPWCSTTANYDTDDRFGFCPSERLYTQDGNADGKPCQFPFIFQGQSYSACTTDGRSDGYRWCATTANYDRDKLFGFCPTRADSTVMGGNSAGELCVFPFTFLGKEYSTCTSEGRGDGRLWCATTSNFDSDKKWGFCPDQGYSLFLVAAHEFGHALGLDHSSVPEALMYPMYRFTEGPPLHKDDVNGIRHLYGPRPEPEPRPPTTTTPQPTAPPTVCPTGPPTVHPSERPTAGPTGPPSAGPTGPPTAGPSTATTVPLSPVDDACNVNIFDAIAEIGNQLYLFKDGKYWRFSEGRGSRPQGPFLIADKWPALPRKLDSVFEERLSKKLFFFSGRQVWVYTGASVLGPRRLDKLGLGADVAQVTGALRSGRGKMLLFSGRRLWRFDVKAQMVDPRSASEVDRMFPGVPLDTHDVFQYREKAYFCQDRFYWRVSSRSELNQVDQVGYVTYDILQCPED

T1 sequence (P08254 100-274 limits assumed): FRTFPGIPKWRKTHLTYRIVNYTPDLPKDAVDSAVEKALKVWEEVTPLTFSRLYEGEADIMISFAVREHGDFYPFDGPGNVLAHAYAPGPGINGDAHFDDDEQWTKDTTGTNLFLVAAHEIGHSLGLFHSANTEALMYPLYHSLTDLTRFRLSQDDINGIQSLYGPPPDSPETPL

SMILES	MMP-3 Thiopep. % inhibition (MMP-3; at 5 μM)	inhibition at 5 µM (MMP-9)	inhibition at 5 µM (MMP-3; at 5 μM)	pIC50 (MMP-3)	pIC50 (MMP-9)
CC(C)CC1CC(c2ccc(-c3ccc(Cl)cc3)cc2)OC1=O (centres unmarked) [Example 36, 2(3H)-Furanone, 5-(4'-chloro[1,1'-biphenyl]-4-yl)dihydro-3-(2-methylpropyl)-, reference compound]	0%	0%			
CC(=O)c1ccc(-c2ccc(Cl)cc2)cc1 [Example 37, Ethanone, 1-(4'-chloro[1,1'-biphenyl]-4-yl)-]		0%	9%		
C=C(CC(O)c1ccc(-c2ccc(Cl)cc2)cc1)C(=O)O (stereo not drawn) [Example 38, [1,1'-Biphenyl]-4-butanoic acid, 4'-chloro-γ-hydroxy-α-methylene-, reference compound]		10%		5.00	
O=C(O)CCC(O)c1ccc(-c2ccccc2F)cc1 (centres unmarked) [Example 39, [1,1'-Biphenyl]-4-butanoic acid, 2'-fluoro-γ-hydroxy-, reference compound]		4%	16%		
O=C(CC(CCCc1ccccc1)C(=O)O)c1ccc(-c2ccc(I)cc2)cc1 (stereo not drawn) [Example 40, [1,1'-Biphenyl]-4-butanoic acid, 4'-iodo-γ-oxo-α-(3-phenylpropyl)-]				6.92	7.30
CC(C)CC(CC(=O)c1ccc(-c2ccc(C#N)cc2)cc1)C(=O)O (stereo not drawn) [Example 46, [1,1'-Biphenyl]-4-butanoic acid, 4'-cyano-α-(2-methylpropyl)-γ-oxo-]				6.15	5.40
CC(C)(C)OC(=O)Nc1ccc(-c2ccc(C(=O)CC(CCCc3ccccc3)C(=O)O)cc2)cc1 (stereo not drawn) [Example 47, [1,1'-Biphenyl]-4-butanoic acid, 4'-[[(1,1-dimethylethoxy)carbonyl]amino]-γ-oxo-α-(3-phenylpropyl)-]		22%		6.25	
CC(C)(C)c1ccc(-c2ccc(C(=O)CC(CCCc3ccccc3)C(=O)O)cc2)cc1 (stereo not drawn) [Example 48, [1,1'-Biphenyl]-4-butanoic acid, 4'-(1,1-dimethylethyl)-γ-oxo-α-(3-phenylpropyl)-]		15%	53%		
CC(C)(C)OC(=O)NCc1ccc(-c2ccc(C(=O)CC(CCCc3ccccc3)C(=O)O)cc2)cc1 (stereo not drawn) [Example 49, [1,1'-Biphenyl]-4-butanoic acid, 4'-[[[(1,1-dimethylethoxy)carbonyl]amino]methyl]-γ-oxo-α-(3-phenylpropyl)-]		13%		6.12	
N#CCc1ccc(-c2ccc(C(=O)CC(CCCc3ccccc3)C(=O)O)cc2)cc1 (stereo not drawn) [Example 50, [1,1'-Biphenyl]-4-butanoic acid, 4'-(cyanomethyl)γ-oxo-α-(3-phenylpropyl)-]				6.20	6.10
CSc1ccc(-c2ccc(C(=O)CC(CCCc3ccccc3)C(=O)O)cc2)cc1 (stereo not drawn) [Example 51, [1,1'-Biphenyl]-4-butanoic acid, 4'-(methylthio)-γ-oxo-α-(3-phenylpropyl)-]				6.77	7.00
O=C(CC(CCCc1ccccc1)C(=O)O)c1ccc(-c2ccc(OCCCl)cc2)cc1 (stereo not drawn) [Example 52, [1,1'-Biphenyl]-4-butanoic acid, 4'-(2-chloroethoxy)-γ-oxo-α-(3-phenylpropyl)-]				7.12	7.43
O=C(CC(CCCc1ccccc1)C(=O)O)c1ccc(-c2ccc(CO)cc2)cc1 (stereo not drawn) [Example 53, [1,1'-Biphenyl]-4-butanoic acid, 4'-(hydroxymethyl)-γ-oxo-α-(3-phenylpropyl)-]				6.02	6.10
O=C(CC(CCCc1ccccc1)C(=O)O)c1ccc(-c2ccc(OCCO)cc2)cc1 (stereo not drawn) [Example 54, [1,1'-Biphenyl]-4-butanoic acid, 4'-(2-hydroxyethoxy)-γ-oxo-α-(3-phenylpropyl)-]				6.72	6.15
C=Cc1ccc(-c2ccc(C(=O)CC(CCCc3ccccc3)C(=O)O)cc2)cc1 (stereo not drawn) [Example 55, [1,1'-Biphenyl]-4-butanoic acid, 4'-ethenyl-γ-oxo-α-(3-phenylpropyl)-]				6.77	6.96
N#Cc1ccc(-c2ccc(C(=O)CC(CCCc3ccccc3)C(=O)O)cc2)cc1 (stereo not drawn) [Example 56, [1,1'-Biphenyl]-4-butanoic acid, 4'-cyano-γ-oxo-α-(3-phenylpropyl)-]				6.51	6.15
O=C(CC(CCCc1ccccc1)C(=O)O)c1ccc(-c2ccc(-c3nnn[nH]3)cc2)cc1 (stereo not drawn) [Example 57, [1,1'-Biphenyl]-4-butanoic acid, γ-oxo-α-(3-phenylpropyl)-4'-(1H-tetrazol-5-yl)-]		22%	16%		
Nc1ccc(-c2ccc(C(=O)CC(CCCc3ccccc3)C(=O)O)cc2)cc1 (stereo not drawn) [Example 58, [1,1'-Biphenyl]-4-butanoic acid, 4'-amino-γ-oxo-α-(3-phenylpropyl)-]				5.92	5.82
NCc1ccc(-c2ccc(C(=O)CC(CCCc3ccccc3)C(=O)O)cc2)cc1 (stereo not drawn) [Example 59, [1,1'-Biphenyl]-4-butanoic acid, 4'-(aminomethyl)γ-oxo-α-(3-phenylpropyl)-]			33%		5.70

SMILES	MMP-3 Thiopep. % inhibition (MMP-3; at 5 μM)	inhibition at 5 µM (MMP-9)	inhibition at 5 µM (MMP-3; at 5 μM)	pIC50 (MMP-3)	pIC50 (MMP-9)
CN(C)c1ccc(-c2ccc(C(=O)CC(CCCc3ccccc3)C(=O)O)cc2)cc1 (stereo not drawn) [Example 60, [1,1'-Biphenyl]-4-butanoic acid, 4'-(dimethylamino)-γ-oxo-α-(3-phenylpropyl)-]				6.22	6.74
CCc1ccc(-c2ccc(C(=O)CC(CC(C)C)C(=O)O)nc2)cc1 (stereo not drawn) [Example 61, 2-Pyridinebutanoic acid, 5-(4-ethylphenyl)-α-(2-methylpropyl)-γ-oxo-]		22%	35%		
O=C(CC(CCCc1ccccc1)C(=O)O)c1ccc(-c2ccc(C(F)(F)F)cc2)cc1 (stereo not drawn) [Example 62, [1,1'-Biphenyl]-4-butanoic acid, γ-oxo-α-(3-phenylpropyl)-4'-(trifluoromethyl)-]				6.40	5.35
O=C(CC(CCCc1ccccc1)C(=O)O)c1ccc(-c2ccc([N+](=O)[O-])cc2)cc1 (stereo not drawn) [Example 63, [1,1'-Biphenyl]-4-butanoic acid, 4'-nitro-γ-oxo-α-(3-phenylpropyl)-]				6.01	6.30
CC(C)CC(CC(=O)c1ccc(-c2ccc(Cl)c(Cl)c2)cc1)C(=O)O (stereo not drawn) [Example 64, [1,1'-Biphenyl]-4-butanoic acid, 3',4'-dichloro-α-(2-methylpropyl)-γ-oxo-]		29%		6.52	
O=C(CC(CCCc1ccccc1)C(=O)O)c1ccc(-c2ccc(Cl)c(Cl)c2)cc1 (stereo not drawn) [Example 65, [1,1'-Biphenyl]-4-butanoic acid, 3',4'-dichloro-γ-oxo-α-(3-phenylpropyl)-]		47%		6.08	
O=C(CC(CCCc1ccccc1)C(=O)O)c1ccc(-c2cc(Cl)cc(Cl)c2)cc1 (stereo not drawn) [Example 66, [1,1'-Biphenyl]-4-butanoic acid, 3',5=-dichloro-γ-oxo-α-(3-phenylpropyl)-]		11%	7%		
CC(=O)Oc1ccc(-c2ccc(C(=O)CC(CCCc3ccccc3)C(=O)O)cc2)cc1 (stereo not drawn) [Example 67, [1,1'-Biphenyl]-4-butanoic acid, 4'-(acetyloxy)-γ-oxo-α-(3-phenylpropyl)-]				6.82	6.11
O=C(CC(CCCc1ccccc1)C(=O)O)c1ccc(-c2ccc(Cl)s2)cc1 (stereo not drawn) [Example 68, Benzenepentanoic acid, α-[2-[4-(5-chloro-2-thienyl)phenyl]-2-oxoethyl]-]				6.55	6.52
COc1ccc(-c2ccc(C(=O)CC(CCCc3ccccc3)C(=O)O)cc2)cc1 (stereo not drawn) [Example 73, [1,1'-Biphenyl]-4-butanoic acid, 4'-methoxy-γ-oxo-α-(3-phenylpropyl)-]				6.66	6.22
O=C(CC(CCCc1ccccc1)C(=O)O)c1ccc(-c2ccc(F)c(Cl)c2)cc1 (stereo not drawn) [Example 74, [1,1'-Biphenyl]-4-butanoic acid, 3'-chloro-4'-fluoro-γ-oxo-α-(3-phenylpropyl)-]		38%		5.64	
CCOc1ccc(-c2ccc(C(=O)CC(CCCc3ccccc3)C(=O)O)cc2)cc1 (stereo not drawn) [Example 75, [1,1'-Biphenyl]-4-butanoic acid, 4'-ethoxy-γ-oxo-α-(3-phenylpropyl)-]				7.11	7.09
O=C(CC(CCCc1ccccc1)C(=O)O)c1ccc(-c2ccsc2)cc1 (stereo not drawn) [Example 76, Benzenepentanoic acid, α-[2-oxo-2-[4-(3-thienyl)phenyl]ethyl]-]				6.00	5.74
O=C(CC(CCCc1ccccc1)C(=O)O)c1ccc(-c2ccc(Cl)cc2Cl)cc1 (stereo not drawn) [Example 77, [1,1'-Biphenyl]-4-butanoic acid, 2',4'-dichloro-γ-oxo-α-(3-phenylpropyl)-]		7%	24%		
O=Cc1ccc(-c2ccc(C(=O)CC(CCCc3ccccc3)C(=O)O)cc2)cc1 (stereo not drawn) [Example 78, [1,1'-Biphenyl]-4-butanoic acid, 4'-formyl-γ-oxo-α-(3-phenylpropyl)-]				6.51	5.92
O=C(CC(CCCc1ccccc1)C(=O)O)c1ccc(-c2cc(C(F)(F)F)cc(C(F)(F)F)c2)cc1 (stereo not drawn) [Example 79, [1,1'-Biphenyl]-4-butanoic acid, γ-oxo-α-(3-phenylpropyl)-3',5'-bis(trifluoromethyl)-]		9%	12%		
O=C(CC(CCCc1ccccc1)C(=O)O)c1ccc(-c2cccs2)cc1 (stereo not drawn) [Example 80, Benzenepentanoic acid, α-[2-oxo-2-[4-(2-thienyl)phenyl]ethyl]-]				6.33	6.10
O=C(CC(CCCc1ccccc1)C(=O)O)c1ccc(-c2cccc(C(F)(F)F)c2)cc1 (stereo not drawn) [Example 81, [1,1'-Biphenyl]-4-butanoic acid, γ-oxo-α-(3-phenylpropyl)-3'-(trifluoromethyl)-]		12%	30%		
